Laboratory results from patent US11166940B2, “Treatment of cardiac disorders by blocking SK4 potassium channel” (Ramot at Tel-Aviv University Ltd., priority 2016, dated 2021).
Where “and” joins values, the source holds several entries; their conditions need not be identical. Equal values may be shown once.

Experiments:
SAN cells = experiment: Spontaneous APs / pacing rate of isolated SAN cells from WT mice (patch clamp); type: cell-based, mouse; details: 2 μM clotrimazole, current clamp; reversible during washout
Method: WT and CASQ2 D307H KI mice were anesthetized with isofluorane and sacrificed by cervical dislocation. The heart was rapidly removed and transferred into Tyrode solution containing heparin. […] The area was cleaned, cut into small strips and washed into a Low Calcium Solution, containing (in mM): 140 NaCl, 5.4 KCl, 0.5 MgCl2, 1.2 KH2PO4, 5 HEPES-NaOH, 50 taurine, 5.5 glucose (pH 6.9). The osmolarity was adjusted if needed to 315 mOsm.
The same solution, supplemented with 1 mg/ml albumin, 200 μM CaCl2, collagenase Type I (Worthington) or liberase TH (Roche), protease (Sigma) and elastase (Sigma) was used for enzymatic digestion as previously described [See, Mesirca, P., et al. Nat Commun 5, 4664 (2014)]. In this step, the tissue was gently resuspended with a polished Pasteur pipette in this solution for 9-13 minutes at 37° C. SAN samples were then washed three times in a modified “Kraftbrühe” solution, containing (in mM): 70 glutamic acid, 80 KOH, 20 KCl, 10 γ-Hydroxybutyric acid sodium salt, 10 KH2PO4, 10 HEPES-KOH, 10 taurine, 1 mg/ml albumin, 0.1 EGTA-KOH (pH 7.2). The same solution was used to re-suspend the single cells with a pipet by vigorous up and down, between 3 to 5 minutes at 37° C. Cells were then gradually exposed to increasing concentrations of calcium, following a “Ca^2+ readaptation” protocol [Mesirca et al., 2014, supra]. Experiments were performed the same day at 33° C.
In all experiments, the coverslips were perfused at 33° C. with an external solution containing (in mM): 140 NaCl, 4 KCl, 11 Glucose, 1.2 MgCl2, 1.8 CaCl2, 5.5 HEPES titrated to pH 7.4 with NaOH and adjusted at 320 mOsm with sucrose.
The spontaneous automaticity of isolated SAN cells was recorded under perforated-patch conditions by adding 30 μM β-escin49 to the intracellular solution containing (in mM): 130 KCl, 10 NaCl, 10 HEPES, 0.2 EGTA-KOH, 2 MgATP, 6.6 Phosphocreatine, 0.05 cAMP and 1 μM free Ca^2+ (pH 7.2). To record SK4 K+ current, a voltage ramp protocol was applied. SAN and hiPS-CMs were held at −40 mV and −20 mV, respectively to substantially inactivate voltage-gated Na^+ and Ca^2+ currents. Cells were stepped from −90 mV to +60 mV for 150 ms. Then, a cocktail (solution 1) containing (in mM) 0.3 cadmium, 0.025 ZD-7288 and 0.01 E-4031 was applied extracellularly to inhibit residual L-type and T-type voltage-gated Ca2+ currents, If and the IKr currents, respectively. […] For voltage-clamp recording of SAN cells, the intracellular solution was the same to that described above for recording spontaneous automaticity.
The spontaneous electric activity of the cell was recorded in the current clamp configuration of the patch clamp technique before (black trace) and during (violet trace) exposure to 2 μM clotrimazole.
FIG. 5E (Left) presents representative traces of spontaneous APs recorded in single SAN cell from WT mice.

WT mice = experiment: In vivo telemetric ECG recording in WT (normal) mice; design: species or system mouse; details: 20 mg/kg IP
Source text: (§1) Telemetric ambulatory long-term ECG recordings, analogous to Holter monitoring in humans, were obtained with implantable transmitters. […] An implantable 3.5 grams wireless radiofrequency transmitter (DSI MM USA, device weight 3.8 grams) was aseptically inserted into a subcutaneous tissue pocket in the back as described in Katz, G., et al. Heart Rhythm 7, 1676-1682 (2010) and Kurtzwald-Josefson, E., et al. Heart Rhythm 11, 1471-1479 (2014)]. Animals were allowed to recover after surgery for at least 24 hours before any experiments. Baseline electrocardiograms (ECG) were obtained 15 minutes after IP injection of the appropriate vehicle (peanut oil or peanut oil supplemented with ethanol 1%). […] Telemetered ECG tracings were obtained in conscious mice at rest for one minute and during peak exercise (i.e. the first minute of recovery). In the treadmill exercise, mice were forced to exercise on a rodent treadmill; gradually increasing the speed up to a maximum of 15 m/minute. Ventricular tachycardia (VT) was defined as four or more consecutive ventricular beats. If this phenotype was consecutively observed for more than 15 seconds, it was defined as “sustained” ventricular tachycardia (SVT). Shorter VTs were characterized as “non-sustained” (NSVT). All other ventricular arrhythmias, such as premature beats, ventricular bigeminy, couplets and triplets were all defined as ventricular premature contractions (VPCs).
For this, a heart telemetry device was implanted in norma mice for continuous ECG recording at rest and during treadmill exercise. For each session, continuous ECG recording was performed with the same animals receiving first intraperitoneal (IP) injection of vehicle (peanut oil) and then 20 mg/kg clotrimazole.
(§2) A heart telemetry device was implanted in WT, CASQ2-D307H KI and CASQ2 KO mice for continuous ECG recording at rest and during treadmill exercise. For each session, continuous ECG recording was performed with the same animals receiving first intraperitoneal (IP) injection of vehicle (peanut oil) and then the SK4 channel blocker.

CASQ2-D307H KI mice = experiment: In vivo telemetric ECG recording in CASQ2-D307H KI mice; design: species or system mouse; details: 20 mg/kg IP; for number of mice, most severe ECG form: NSVT / number of mice, most severe ECG form: Normal (sinusal rhythm) / number of mice, most severe ECG form: SVT / number of mice, most severe ECG form: VPC: n=5 Clotrimazole, n=12 TRAM-34
Source text: as §1, §2
(§3) The types of arrhythmic features were classified following their seriousness: sinusal rhythm (normal), ventricular premature contractions (VPC), non-sustained ventricular tachycardia (NSVT) and sustained ventricular tachycardia (SVT). For each mouse was considered the most severe form of arrhythmia recorded under ECG.

CASQ2 KO mice = experiment: In vivo telemetric ECG recording in CASQ2 KO mice; design: species or system mouse; details: 20 mg/kg IP; for number of mice, most severe ECG form: NSVT / number of mice, most severe ECG form: Normal (sinusal rhythm) / number of mice, most severe ECG form: SVT / number of mice, most severe ECG form: VPC: n=6
Source text: as §1, §2, §3

SK4 current = target: T1, SK4 current (Homo sapiens, UniProt O15554); details: 2 μM clotrimazole added to solution 1; voltage ramp −90 to +40 mV; cited from earlier work
T1 construct: electrophysiological characterization of the SK4 current in a single cardiac hESC-CM; endogenous in cells; host or cells: hESC-CMs (human embryonic stem cell-derived cardiomyocytes)
T1 sequence (O15554 whole entry): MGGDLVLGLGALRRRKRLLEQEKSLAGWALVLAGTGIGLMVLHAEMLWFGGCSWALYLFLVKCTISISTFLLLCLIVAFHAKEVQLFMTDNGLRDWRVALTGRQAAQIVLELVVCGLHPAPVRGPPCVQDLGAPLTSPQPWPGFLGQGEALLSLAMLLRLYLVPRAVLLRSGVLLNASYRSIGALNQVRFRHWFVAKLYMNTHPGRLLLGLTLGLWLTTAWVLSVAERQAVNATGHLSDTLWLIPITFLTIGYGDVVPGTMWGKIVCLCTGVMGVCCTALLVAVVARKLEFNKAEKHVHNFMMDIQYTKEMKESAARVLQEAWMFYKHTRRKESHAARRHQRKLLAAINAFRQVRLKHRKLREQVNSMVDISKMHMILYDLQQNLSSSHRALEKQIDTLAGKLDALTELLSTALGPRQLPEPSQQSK

hESC-CMs = details: 2 μM clotrimazole, current clamp; cited from earlier work

In the case of `Clc1ccccc1C(c1ccccc1)(c1ccccc1)n1ccnc1` [Clotrimazole], the firing rate (SAN cells) was “strongly decreases the firing rate of the cells”, the “prolongation of the PR interval” value (WT mice; WT mice at rest) was 27% and the “reduction of resting heart rate” value (WT mice; WT mice at rest, vs vehicle in same animal) was 16.1±6.1% and 16±6%. The PR interval (WT mice; normal mice at rest, n=10 (vehicle 29.4±0.9)) was 37.0 ± 3.5 ms, the resting heart rate (WT mice; normal mice at rest, n=10 (vehicle 718±16)) was 604±43 bpm and the “sinus rate (heart rate)” value (WT mice; normal mice during treadmill exercise, n=10 (vehicle 724±18)) was 605±42 bpm. The PR interval (WT mice; normal mice following treadmill exercise, n=10 (vehicle 29.27±0.94), not significant) was 37.44 ± 4.03 ms, the “mice converted to normal sinus rhythm” value (CASQ2-D307H KI mice; KI mice at rest) was 3 out of 5 and the “heart rate and PR interval” value (CASQ2-D307H KI mice; KI mice, basal conditions and during treadmill exercise) was “bradycardia and PR prolongation were noticed”. For the same compound, the “number of mice, most severe ECG form: NSVT” value (from here on “number of mice … NSVT”) (CASQ2-D307H KI mice; KI at rest) was 0, the “number of mice, most severe ECG form: Normal (sinusal rhythm)” value (from here on “number of mice … (sinusal rhythm)”) (CASQ2-D307H KI mice; KI at rest) was 3 and the “number of mice, most severe ECG form: SVT” value (CASQ2-D307H KI mice; KI at rest) was 0. The “number of mice, most severe ECG form: VPC” value (“number of mice … VPC” for short) (CASQ2-D307H KI mice; KI at rest) was 2, the “number of mice … NSVT” value (CASQ2-D307H KI mice; KI during Exercise) was 2 and the “number of mice … (sinusal rhythm)” value (CASQ2-D307H KI mice; KI during Exercise) was 0. The “number of mice, most severe ECG form: SVT” value (CASQ2-D307H KI mice; KI during Exercise) was 1, the “number of mice … VPC” value (CASQ2-D307H KI mice; KI during Exercise) was 2 and the “heart rate and PR interval” value (CASQ2 KO mice; KO mice, basal conditions and during treadmill exercise) was “bradycardia and PR prolongation were noticed”. For the same compound, the “number of mice … NSVT” value (CASQ2 KO mice; KO at rest) was 0, the “number of mice … (sinusal rhythm)” value (CASQ2 KO mice; KO at rest) was 4 and the “number of mice, most severe ECG form: SVT” value (CASQ2 KO mice; KO at rest) was 0. The “number of mice … VPC” value (CASQ2 KO mice; KO at rest) was 2, the “number of mice … NSVT” value (CASQ2 KO mice; KO during exercise) was 3 and the “number of mice … (sinusal rhythm)” value (CASQ2 KO mice; KO during exercise) was 0. For the same compound, the “number of mice, most severe ECG form: SVT” value (CASQ2 KO mice; KO during exercise) was 1, the “number of mice … VPC” value (CASQ2 KO mice; KO during exercise) was 2 and the “clotrimazole-sensitive/SK4 current (linear voltage trace)” value (SK4 current) was “decreased the linear voltage trace in both sides”. For the same compound, the “duration of the action potentials (APD50)” value (hESC-CMs) was “did not significantly affect”, the firing rate (hESC-CMs) was “decreased the firing rate of the cells” and the “membrane potential (MDP) / pacing” value (hESC-CMs) was “depolarized the membrane of the cell (MDP) until a pacing arrest”.
